In patent US20160058829A1, “ANTI-FIBROTIC PEPTIDES AND THEIR USE IN METHODS FOR TREATING DISEASES AND DISORDERS CHARACTERIZED BY FIBROSIS” (Thrasos Innovation, Inc., priority 2011, published 2016):
“Also recorded” adds a separate entry of the source. Positions of bridges follow the written chain, without caps; N, C: chain ends.

What was measured:
[1] = system: mice with unilateral ureteral obstruction (UUO); assay: Unilateral ureteral obstruction (UUO) in mice; type: in vivo; details: for kidney histology (H&E), day 7 UUO: BMP7 i.p., THR-123 i.p. or orally; for interstitial volume / fibrosis, day 7 UUO: BMP-7 300 μg/Kg every other day i.p., THR-123 5 mg/Kg/day i.p. or oral
Description: FIG. 56A-FIG. 56J The effect of THR-123 on mice with unilateral ureteral obstruction (UUO) mice. At the day of UUO, BMP-7 (300 μg/Kg/every other day, intraperitoneal administration) or THR-123 (5 mg/Kg/day, oral or intraperitoneal administration) are initiated. FIG. 56A-FIG. 56D: Masson's trichrome staining of normal kidney, day 5 UUO kidney. FIG. 56A. normal kidney section. […] FIG. 56C, FIG. 56D. […] FIG. 56E. Morphometric analysis for relative interstitial volume. Interstitial volume was calculated by the point counting method. FIG. 56F-FIG. 56I. Masson's trichrome staining of normal kidney, day 7 UUO kidney. […] FIG. 56I. Morphometric analysis for relative interstitial volume. Interstitial volume was calculated by the point counting method. […] Normal mice (n=4), day 5 UUO without treatment (n=4), day 5 UUO-treated with 5 mg/kg THR-123 (n=4), day 5 UUO-treated with 15 mg/kg THR-123 (n=4), day 7 UUO-treated with PBS (n=8), -treated with BMP (n=8) and -treated with THR-123 (n=7 in both i.p. and oral). Data are shown as mean±s.e.m. in the graph (FIG. 56J).
FIG. 57A-FIG. 57H The effect of THR-123 on mice with unilateral ureteral obstruction (UUO) mice (H&E staining). On the day UUO was performed, treatments of BMP7 (300 μg/Kg/every other day, intraperitoneal administration) or THR-123 (5 mg/Kg/day, oral or intraperitoneal administration) are initiated. FIG. 57A. Normal kidney section. FIG. 57B. Day 5 UUO mice FIG. 57C, FIG. 57D. Kidney of UUO mice treated with THR-123 orally at 5 mg/kg (FIG. 57C) or 15 mg/kg (FIG. 57D) E-H. Day 7 UUO kidney histology. […] Normal mice (n=4), day 5 UUO without treatment (n=4), day 5 UUO-treated with 5 mg/kg THR-123 (n=4), day 5 UUO-treated with 15 mg/kg THR-123 (n=4), day 7 UUO-treated with PBS (n=8), -treated with BMP (n=8) and -treated with THR-123 (n=7 in both i.p. and oral).
FIG. 58 Gene expression analysis for the fibrosis markers in mice with UUO. Quantitative RT-PCR analysis for fibronectin-EIII and collagen type-I in normal kidney and day 7 UUO kidney with or without indicated treatment.
Mice are anesthetized with the mixture of ketamine and xylazine. Prepare the ureter from the surrounding tissues and place two ligatures about 5 mm apart in upper two-thirds of the ureter of the left kidney to obtain reliable obstruction. At same day after surgery, mice were initiated treatment with BMP7 (300 μg i.p./Kg/every other day), THR-123 (p.o. 5 mg or 15 mg/Kg/day, i.p. 5 mg/Kg/day) or PBS (i.p.) as control. Mice are sacrificed at day 5 or 7 after operation.

p38 MAPK = p38 MAPK phosphorylation in HK-2 cells; type: cell-based, human
Excerpt: The significance of p38 MAPK is that this protein is implicated as a non-Smad-dependent pathway for TGF-β-dependent EMT. Other non-Smad-dependent pathways implicated in TGF-β-dependent EMT include RhoA, Ras, PI3 kinase, Notch, and Wnt signaling pathways.
It has been shown that regulation p38 MAPK activity by pro-inflammatory factors has implications in fibrosis.

NP-1 cells = assay: Hypoxia-induced apoptosis in NP-1 cells (Annexin V); type: cell-based; details: 2.5% O2 24 h; BMP-7 1 μg/ml, THR-123 10 μM
Description: FIG. 49A-FIG. 49D THR-123 inhibits Hypoxia-induced apoptosis in NP-1 cells. NP-1 cells are incubated with hypoxia (2.5% O2) for 24 h in the presence of indicated molecules. Apoptosis was analyzed by Annexin V labeling (Roche). Representative merged picture (Green: Annexin V and bright field image) of cells treated with hypoxia only (FIG. 49A), hypoxia+BMP-7 (1 μg/ml) FIG. 49(B), hypoxia+THR-123 (10 μM) (FIG. 49C) and hypoxia+ctrl peptide (FIG. 49D).

[2] = system: pluripotent mesenchymal stem cells (C3H10T1/2); assay: Osteoblastic differentiation of pluripotent stem cells (alkaline phosphatase staining); type: cell-based, Murine; details: BMP-7 2 ug/mL
Excerpt: Murine pluripotent mesenchymal stem cells (C3H10T1/2) treated with medium alone, BMP-7 or THR-123 were stained for alkaline phosphatase activity, an osteogenic marker. No staining of cells was observed when treated with medium alone (control, panel FIG. 41A) or with THR-123 (panel FIG. 41B). […] Cells were counterstained with hematoxylin.

Molecule | kidney histology (H&E), day 7 UUO [1] | interstitial volume / fibrosis, day 7 UUO ([1]; 5 mg/kg/day) | interstitial volume expansion, day 5 UUO ([1]; THR-123 oral 5 mg/Kg or 15 mg/Kg) | kidney histology, day 5 UUO ([1]; THR-123 orally 5 mg/kg or 15 mg/kg) | expression of fibronectin and type I collagen, day 7 UUO ([1]; quantitative RT-PCR) | TNF alpha induced p38 phosphorylation (p38 MAPK; HK-2 cells) | basal p38 phosphorylation (p38 MAPK; HK-2 cells) | potency on p38 phosphorylation relative to SB 203580 (p38 MAPK; THR-123 1 uM versus specific inhibitor 10 uM) | hypoxia-induced apoptosis (NP-1 cells) | osteoblastic differentiation (alkaline phosphatase staining) [2] | interstitial volume / fibrosis, day 7 UUO [1] | interstitial volume / fibrosis, day 7 UUO ([1]; listed as BMP7)
(H)-CYFDDSSNVLCKKYRS-(OH) (H-CYFDDSSNVLCKKYRS-OH; disulfide 1-11; SMILES CC(C)C[C@@H]1NC(=O)[C@H](C(C)C)NC(=O)[C@H](CC(N)=O)NC(=O)[C@H](CO)NC(=O)[C@H](CO)NC(=O)[C@H](CC(=O)O)NC(=O)[C@H](CC(=O)O)NC(=O)[C@H](Cc2ccccc2)NC(=O)[C@H](Cc2ccc(O)cc2)NC(=O)[C@@H](N)CSSC[C@@H](C(=O)N[C@@H](CCCCN)C(=O)N[C@@H](CCCCN)C(=O)N[C@@H](Cc2ccc(O)cc2)C(=O)N[C@@H](CCCNC(=N)N)C(=O)N[C@@H](CO)C(=O)O)NC1=O) [SEQ ID NO: 1] | preserved tubules | inhibited fibrosis; also recorded: less kidney interstitial volume | inhibited interstitial volume expansion | less tubular atrophy, tubular dilatation and interstitial inflammation | decreased expression of matrix components such as fibronectin and type I collagen | effectively inhibited | effectively inhibited | as potent as 10 uM of the specific inhibitor | decreased apoptosis | failed to induce osteoblastic differentiation |  | 
BMP-7: bone morphogenetic protein-7; recombinant human BMP7, positive control (protein) STGSKQRSQNRSKTPKNQEALRMANVAENSSSDQRQACKKHELYVSFRDLGWQDWIIAPEGYAAYYCEGECAFPLNSYMNATNHAIVQTLVHFINPETVPKPCCAPTQLNAISVLYFDDSSNVILKKYRNMVVRACGCH | preserved tubules |  |  |  |  |  | inhibited p38 phosphorylation |  | decreased apoptosis | induced osteoblastic differentiation | ameliorated interstitial volume expansion | less kidney interstitial volume
